# According to US10023612B2, “Method of treating endometriosis” (ValiRx PLC, priority 2011, dated 2018):
# “And” between values parts separate entries of the source, which are not always exact repeats. Identical values can stand only once.
# Legend:
# [1] = mouse, in vivo
# Experimental: 8-10 week old, female nulliparous C57BL6 mice were acclimatised for 1 week. A group of 10 female animals were dosed with 10 ng of peptide injected subcutaneously 3 days prior to experimentation with a control group of 10 animals treated with vehicle alone.
# 5 male C57BL6 animals were introduced and the females checked daily for mucous plug (before 9 a.m.). When mucous plug was recorded the females were evaluated for:
# a) Length of possible pregnancy (days)
# c) Anomalies in offspring
# [2] = mouse, in vivo; remark: listed apart in the source
# From the text: Offspring from dosed females were mated and checked for fertility to determine possible inheritable effects.
# endometriosis lesion = assay: First study: in-vivo model of endometriosis, tissue from K-rasV12/Ah-Cre/ROSA26R-LacZ donor mice in wild-type animals; settings: four treated animals, injected for 21 days
# Experimental: In a first study, a total of 4 treatment and 5 control animals were generated in a novel in-vivo model of endometriosis (Research Horizons, University of Cambridge, 2009 Issue 8, GB 0715635.9) K-rasV12/Ah-Cre transgenic mice were crossed with Rosa26R mice to generate KrasV12+/−/Ah-Cre+/−/ROSA26R-LacZ+/− transgenic mice. The F1 offspring were inbred to generate F2 K-rasV12+/−/Ah-Cre+/+/ROSA26R-LacZ+/+ transgenic mice. The presence of the transgenes was determined by PCR using gene specific primers for K-ras, Cre and Rosa26R-LacZ. Tissue was collected from donor animals previously treated with hormones etc. and was divided between wild-type animals that were then injected with drug or vehicle for 21 days.
# [3] = tested on: endometriosis lesions (plugs of uterine tissue); assay: Dose ranging prevention study, transplanted plugs of uterine tissue; type: in vivo, C57BL6 mice; settings: for Lesion burden Ave / Lesion growth Ave: average per mouse; for Lesion burden Mean / Lesion establishment Mean / Lesion growth Mean: group mean; for Lesion burden P1 / Lesion burden P2 / Lesion burden P3 / Lesion burden P4 / Lesion burden P5 / Lesion burden P6 / Lesion growth M1 / Lesion growth M2 / Lesion growth P1 / Lesion growth P2 / Lesion growth P3 / Lesion growth P4 / Lesion establishment M1 / Lesion establishment M2 / Lesion establishment P1 / Lesion establishment P2 / Lesion establishment P3 / Lesion establishment P4: individual mouse; for Lesion establishment M1 / Lesion establishment M2 / Lesion establishment P1 / Lesion establishment P2 / Lesion establishment P3 / Lesion establishment P4: 1 or 0; for Lesion establishment Ave: per mouse
substance,measurement,setting,value
"Ac-PPPHPHARIK-NH2 [ValiRx1, Ac-Pro-Pro-Pro-His-Pro-His-Ala-Arg-Ile-Lys-NH2]",fertility of mice,[1],does not affect their fertility
same,fertility of offspring from dosed females,[2],no abnormalities noted
same,absence of lesion following treatment,endometriosis lesion,three showed complete absence of lesion
same,lesion growth following treatment vs control group,"[3]; 1 ng, 10 ng or 100 ng s.c. daily",significantly reduced
same,Lesion burden Ave,[3]; 1 ng/mouse s.c. daily,1.1 mm^2 and 1.9 mm^2 and 12.1 mm^2 and 6.5 mm^2 and 8.5 mm^2
same,Lesion growth Ave,[3]; 1 ng/mouse s.c. daily,6.5 mm^2 and 8.5 mm^2 and 1.3 mm^2 and 1.9 mm^2 and 12.1 mm^2
same,Lesion burden Mean,[3]; 1 ng/mouse s.c. daily,6.02 mm^2
same,Lesion establishment Mean,[3]; 1 ng/mouse s.c. daily,96.67%
same,Lesion growth Mean,[3]; 1 ng/mouse s.c. daily,6.23 mm^2
same,Lesion burden P1,[3]; 1 ng/mouse s.c. daily,1.8 mm^2 and 1.1 mm^2 and 4.2 mm^2 and 15.1 mm^2 and 10.2 mm^2
same,Lesion burden P2,[3]; 1 ng/mouse s.c. daily,0.2 mm^2 and 3.1 mm^2 and 16.7 mm^2 and 5.7 mm^2 and 10.6 mm^2
same,Lesion burden P3,[3]; 1 ng/mouse s.c. daily,0.1 mm^2 and 2.5 mm^2 and 15.2 mm^2 and 8.0 mm^2 and 16.6 mm^2
same,Lesion burden P4,[3]; 1 ng/mouse s.c. daily,0.0 mm^2 and 0.2 mm^2 and 17.0 mm^2 and 3.8 mm^2 (2×)
same,Lesion burden P5,[3]; 1 ng/mouse s.c. daily,3.5 mm^2 and 1.1 mm^2 and 11.2 mm^2 and 0.2 mm^2 and 0.5 mm^2
same,Lesion burden P6,[3]; 1 ng/mouse s.c. daily,1.1 mm^2 and 3.5 mm^2 and 8.0 mm^2 and 6.2 mm^2 and 9.4 mm^2
same,Lesion growth M1,[3]; 1 ng/mouse s.c. daily,0.196 mm^2 and 0.503 mm^2 and 3.456 mm^2 and 1.131 mm^2 and 11.2 mm^2
same,Lesion growth M2,[3]; 1 ng/mouse s.c. daily,6.158 mm^2 and 9.425 mm^2 and 1.131 mm^2 and 3.464 mm^2 and 8.042 mm^2
same,Lesion growth P1,[3]; 1 ng/mouse s.c. daily,1.131 mm^2 and 4.155 mm^2 and 15.1 mm^2 and 10.18 mm^2 and 1.767 mm^2
same,Lesion growth P2,[3]; 1 ng/mouse s.c. daily,3.142 mm^2 and 16.74 mm^2 and 5.694 mm^2 and 10.56 mm^2 and 0.196 mm^2
same,Lesion growth P3,[3]; 1 ng/mouse s.c. daily,2.545 mm^2 and 15.21 mm^2 and 8.042 mm^2 and 16.62 mm^2 and 0.126 mm^2
same,Lesion growth P4,[3]; 1 ng/mouse s.c. daily,3.801 mm^2 (2×) and 0.196 mm^2 and 16.96 mm^2
same,Lesion establishment M1,[3]; 1 ng/mouse s.c. daily,1
same,Lesion establishment M2,[3]; 1 ng/mouse s.c. daily,1
same,Lesion establishment P1,[3]; 1 ng/mouse s.c. daily,1
same,Lesion establishment P2,[3]; 1 ng/mouse s.c. daily,1
same,Lesion establishment P3,[3]; 1 ng/mouse s.c. daily,1
same,Lesion establishment P4,[3]; 1 ng/mouse s.c. daily,1 (4×) and 0
same,Lesion establishment Ave,[3]; 1 ng/mouse s.c. daily,100% (4×) and 83.33%
same,Lesion burden Ave,[3]; 10 ng/mouse s.c. daily,2.9 mm^2 and 6.7 mm^2 and 11.3 mm^2 and 3.3 mm^2 and 3.5 mm^2
same,Lesion growth Ave,[3]; 10 ng/mouse s.c. daily,2.9 mm^2 and 6.7 mm^2 and 11.3 mm^2 and 3.3 mm^2 and 4.2 mm^2
same,Lesion burden Mean,[3]; 10 ng/mouse s.c. daily,5.53 mm^2
same,Lesion establishment Mean,[3]; 10 ng/mouse s.c. daily,96.67%
same,Lesion growth Mean,[3]; 10 ng/mouse s.c. daily,5.72 mm^2
same,Lesion burden P1,[3]; 10 ng/mouse s.c. daily,1.0 mm^2 and 7.3 mm^2 and 12.6 mm^2 and 3.1 mm^2 and 1.1 mm^2
same,Lesion burden P2,[3]; 10 ng/mouse s.c. daily,3.5 mm^2 (2×) and 10.0 mm^2 and 7.0 mm^2 and 2.5 mm^2
same,Lesion burden P3,[3]; 10 ng/mouse s.c. daily,10.9 mm^2 and 4.5 mm^2 and 9.6 mm^2 and 3.5 mm^2 (2×)
same,Lesion burden P4,[3]; 10 ng/mouse s.c. daily,1.0 mm^2 and 6.7 mm^2 and 5.4 mm^2 and 3.0 mm^2 and 0.0 mm^2
same,Lesion burden P5,[3]; 10 ng/mouse s.c. daily,1.0 mm^2 and 7.1 mm^2 and 21.1 mm^2 and 3.5 mm^2 and 4.0 mm^2
same,Lesion burden P6,[3]; 10 ng/mouse s.c. daily,0.2 mm^2 and 4.5 mm^2 and 12.1 mm^2 and 3.1 mm^2 and 9.7 mm^2
same,Lesion growth M1,[3]; 10 ng/mouse s.c. daily,0.95 mm^2 and 7.069 mm^2 and 21.11 mm^2 and 3.464 mm^2 and 3.958 mm^2
same,Lesion growth M2,[3]; 10 ng/mouse s.c. daily,0.196 mm^2 and 4.524 mm^2 and 12.06 mm^2 and 3.142 mm^2 and 9.66 mm^2
same,Lesion growth P1,[3]; 10 ng/mouse s.c. daily,0.95 mm^2 and 7.288 mm^2 and 12.57 mm^2 and 3.142 mm^2 and 1.131 mm^2
same,Lesion growth P2,[3]; 10 ng/mouse s.c. daily,3.464 mm^2 (2×) and 10.02 mm^2 and 7.037 mm^2 and 2.545 mm^2
same,Lesion growth P3,[3]; 10 ng/mouse s.c. daily,10.95 mm^2 and 4.524 mm^2 and 9.621 mm^2 and 3.464 mm^2 (2×)
same,Lesion growth P4,[3]; 10 ng/mouse s.c. daily,0.95 mm^2 and 6.739 mm^2 and 5.372 mm^2 and 2.969 mm^2
same,Lesion establishment M1,[3]; 10 ng/mouse s.c. daily,1
same,Lesion establishment M2,[3]; 10 ng/mouse s.c. daily,1
same,Lesion establishment P1,[3]; 10 ng/mouse s.c. daily,1
same,Lesion establishment P2,[3]; 10 ng/mouse s.c. daily,1
same,Lesion establishment P3,[3]; 10 ng/mouse s.c. daily,1
same,Lesion establishment P4,[3]; 10 ng/mouse s.c. daily,1 (4×) and 0
same,Lesion establishment Ave,[3]; 10 ng/mouse s.c. daily,100% (4×) and 83.33%
same,Lesion burden Ave,[3]; 100 ng/mouse s.c. daily,11.8 mm^2 and 1.8 mm^2 and 3.2 mm^2 and 3.0 mm^2 and 2.9 mm^2
same,Lesion growth Ave,[3]; 100 ng/mouse s.c. daily,11.8 mm^2 and 1.8 mm^2 and 3.2 mm^2 and 3.0 mm^2 and 2.9 mm^2
same,Lesion burden Mean,[3]; 100 ng/mouse s.c. daily,4.52 mm^2
same,Lesion establishment Mean,[3]; 100 ng/mouse s.c. daily,100.00%
same,Lesion growth Mean,[3]; 100 ng/mouse s.c. daily,4.52 mm^2
same,Lesion burden P1,[3]; 100 ng/mouse s.c. daily,7.0 mm^2 and 4.5 mm^2 and 2.8 mm^2 and 2.0 mm^2 and 1.5 mm^2
same,Lesion burden P2,[3]; 100 ng/mouse s.c. daily,18.5 mm^2 and 2.8 mm^2 and 2.3 mm^2 and 3.1 mm^2 and 3.5 mm^2
same,Lesion burden P3,[3]; 100 ng/mouse s.c. daily,11.0 mm^2 and 2.3 mm^2 (2×) and 3.5 mm^2 and 4.9 mm^2
same,Lesion burden P4,[3]; 100 ng/mouse s.c. daily,8.4 mm^2 and 0.2 mm^2 and 3.8 mm^2 and 2.5 mm^2 and 1.8 mm^2
same,Lesion burden P5,[3]; 100 ng/mouse s.c. daily,12.6 mm^2 and 1.0 mm^2 and 7.5 mm^2 and 3.8 mm^2 and 2.0 mm^2
same,Lesion burden P6,[3]; 100 ng/mouse s.c. daily,13.2 mm^2 and 0.3 mm^2 (2×) and 2.8 mm^2 and 3.5 mm^2
same,Lesion growth M1,[3]; 100 ng/mouse s.c. daily,12.57 mm^2 and 0.95 mm^2 and 7.548 mm^2 and 3.801 mm^2 and 2.011 mm^2
same,Lesion growth M2,[3]; 100 ng/mouse s.c. daily,13.2 mm^2 and 0.283 mm^2 (2×) and 2.835 mm^2 and 3.464 mm^2
same,Lesion growth P1,[3]; 100 ng/mouse s.c. daily,7.037 mm^2 and 4.453 mm^2 and 2.827 mm^2 and 2.011 mm^2 and 1.539 mm^2
same,Lesion growth P2,[3]; 100 ng/mouse s.c. daily,18.47 mm^2 and 2.827 mm^2 and 2.27 mm^2 and 3.142 mm^2 and 3.464 mm^2
same,Lesion growth P3,[3]; 100 ng/mouse s.c. daily,11 mm^2 and 2.27 mm^2 (2×) and 3.464 mm^2 and 4.909 mm^2
same,Lesion growth P4,[3]; 100 ng/mouse s.c. daily,8.357 mm^2 and 0.196 mm^2 and 3.801 mm^2 and 2.545 mm^2 and 1.767 mm^2
same,Lesion establishment M1,[3]; 100 ng/mouse s.c. daily,1
same,Lesion establishment M2,[3]; 100 ng/mouse s.c. daily,1
same,Lesion establishment P1,[3]; 100 ng/mouse s.c. daily,1
same,Lesion establishment P2,[3]; 100 ng/mouse s.c. daily,1
same,Lesion establishment P3,[3]; 100 ng/mouse s.c. daily,1
same,Lesion establishment P4,[3]; 100 ng/mouse s.c. daily,1
same,Lesion establishment Ave,[3]; 100 ng/mouse s.c. daily,100%
same,lesion establishment,[3]; range over groups of the model,97.67%-100%
